Results published in patent publication US12534465B2, “5H-pyrrolo[3,2-d]pyrimidine-2,4-diamino compounds and antibody conjugates thereof” (SUTRO BIOPHARMA, INC., priority 2019, dated 2026).

Key:
[1] = Body weight / tolerability in MC38-hFolRα tumor-bearing mice; type: in vivo, mouse
Experimental: (§1) Female C57BL/6 mice at 9-10 weeks of age were anesthetized with isoflurane and implanted subcutaneously into the right hind flank with 1×10^6 MC38-hFolRα (murine colon adenocarcinoma cells engineered to express hFolRα). Randomization and start of treatment was initiated when the average tumor size was approximately 150 mm^3 (designated as Day 0 post-treatment). Animals received intratumoral (IT) injections of Compound 2 on Day 0 and Day 4 (q4d×2). Compound 2 was dissolved in DMSO and dosing solutions were formulated in PBS. Body weight and tumor size were monitored 3×/week. The primary study endpoint was reached when the mean tumor size of the vehicle control group was >1,200 mm^3.

MC38-hFolRα tumors = test: Anti-tumor activity in mice bearing established MC38-hFolRα tumors; type: in vivo, mouse; conditions: Day 0 and 4; for tumor growth inhibition (TGI): compared to vehicle control on day 10, p<0.0001
From the text: This example evaluates the response of MC38-hFolRα tumors to treatment with Compound 2, a TLR 7 agonist.
as §1

cyno PBMCs = test: Cytokine release (ELISA); type: cell-based, cynomolgus monkey; conditions: 48 hr, 10 μg/mL LPS-RS
Experimental: (§2) This example evaluates the ability of Compound 10 to induce cytokine release in human PBMCs, cyno PBMCs and mouse splenocytes. Compound 1 and resiquimod:
(§3) Human and cyno PBMCs, mouse splenocytes were isolated as described in previous example. The day of the assay, 300 k of PBMC or splenocytes in 50 μL of culture medium were seeded in 96-well cell culture plates. 50 μl of the test articles (formulated at 2× of starting concentration) were then added into the well. The cell mixtures were co-cultured in the presence of test articles and 10 μg/mL LPS-RS for 24 hr (human PBMCs) or 48 hr (cyno PBMCs and mouse splenocytes). Cytokines released were measured by ELISA using cell culture medium.

human PBMCs [2] = test: Immune cell activation (CD86 expression, flow cytometry); type: cell-based; conditions: 48 hr, 10 μg/ml LPS-RS
From the text: This example evaluates the ability of Compound 10 to stimulate the activation of different immune cells populations (monocyte, B cell, and DCs), in human PBMCs (Peripheral blood mononuclear cells), cyno PBMCs and mouse splenocytes.
Peripheral blood mononuclear cells (PBMCs) were isolated from fresh collected blood from two healthy human donors and two cynomolgus monkey donors using Leukosep tube and Nycoprep 1.077 buffer according to the manufacture's recommendation. Mouse splenocytes were isolated from C57/BL6 mouse spleens by macerating and straining over a 70 μm cell strainer. Isolated PBMCs or splenocytes were then frozen down using frozen medium. On the day of the assay, PBMCs or splenocytes were thawed and cultured in PBMC culture medium (RPMI supplemented with 10% heat-inactivated fetal bovine serum from Hyclone, 1% Penicillin/Streptomycin and 2 mmol/L-glutamax). 300 k of PBMC or splenocytes in 50 μl of culture medium were seeded in 96-well cell culture plates. 50 μl of the test articles (formulated at 2× of starting concentration) were then added into the well. The cell mixtures were co-cultured in the presence of test articles and 10 μg/ml LPS-RS for 48 hr. The cells were collected by Accutase and then stained with antibodies to different cell population markers and activation markers. Cells were washed, fixed with 2% PFA overnight, and read on the Attune N×T cytometer (Thermo Fisher). Monocyte activation was indicated as increase of CD86 expression on CD14+ cells. B cell activation was indicated as increase of CD86 expression on CD14−/Lin+/HLA-DR+ cells. Dendritic cells (DC) activation was indicated as increase of CD86 expression on CD14−/Lin−/HLA-DR+/CD123+ cells.

human PBMCs [3] = test: Cytokine release (ELISA); type: cell-based; conditions: 24 hr, 10 μg/mL LPS-RS
Experimental: as §2, §3

mouse splenocytes = test: Cytokine release (ELISA); type: cell-based; conditions: 48 hr, 10 μg/mL LPS-RS
Experimental: as §2, §3

For CCCCCNc1nc(N)nc2ccn(Cc3ccc(CN4CC(NC)C4)cc3OC)c12 [Compound 2, 5-(2-methoxy-4-((3-(methylamino)azetidin-1-yl)methyl)benzyl)-N4-pentyl-5H-pyrrolo[3,2-d]pyrimidine-2,4-diamine], the tolerability ([1]; 0.1-2 mg/kg intratumoral, Day 0 and 4) was “well tolerated”, the “dose-related minimal body weight loss” value ([1]; FIG. 7A legend, mice bearing MC38-hFolRα tumors) was < 10 % of predose and the body weight loss ([1]; doses >0.5 mg/kg intratumoral, Day 0 and 4, recovery by approximately Day 7, FIG. 7A) was “approximately 5%”. The “tumor growth inhibition (TGI)” value (MC38-hFolRα tumors; 0.1 mg/kg intratumoral) was 55%, the “tumor growth inhibition (TGI)” value (MC38-hFolRα tumors; 0.5 mg/kg intratumoral) was 61% and the “tumor growth inhibition (TGI)” value (MC38-hFolRα tumors; 2 mg/kg intratumoral) was 80%. For the same molecule, the “MC38-hFolRα tumor growth delay” value (MC38-hFolRα tumors; 0.1-2 mg/kg intratumoral) was “significantly delayed”.

In the case of CCCCCNc1nc(N)nc2ccn(Cc3ccc(CN4CC5(CNCCO5)C4)cc3OC)c12 [Compound 10, 5-[[2-methoxy-4-(5-oxa-2,8-diazaspiro[3.5]nonan-2-ylmethyl)phenyl]methyl]-N4-pentyl-pyrrolo[3,2-d]pyrimidine-2,4-diamine], the IL-6 release (cyno PBMCs; FIG. 5A) is reported as “strong”, the MCP-1 release (cyno PBMCs; FIG. 5B) is reported as “strong” and the activation of monocytes (human PBMCs [2]; FIG. 1A) is reported as “very potent”. The “activation of B cells” value (human PBMCs [2]; FIG. 1B) was “very potent”, the “activation of cDCs” value (human PBMCs [2]; FIG. 1C) was “very potent” and the “activation of pDCs” value (human PBMCs [2]; FIG. 1D) was “very potent”. The IL-6 release (human PBMCs [3]; FIG. 4A) was “strong”, the MCP-1 release (human PBMCs [3]; FIG. 4B) was “strong” and the IL1Ra release (human PBMCs [3]; FIG. 4C) was “strong”. The IL-6 release (mouse splenocytes; FIG. 6A) was “strong”, the MCP-1 release (mouse splenocytes; FIG. 6B) was “strong” and the TNFa release (mouse splenocytes; FIG. 6C) was “strong”. The IP-10 release (mouse splenocytes; FIG. 6D) was “strong”.
